Laboratory results as given in the supplement of paper PMC10307832.

Compound: C1COCCN1CC2=CC(=O)C(=CO2)OCCCCCSC3=C4C=CC(=CC4=NC=C3)C(F)(F)F [EHT 1864] + Cc1cc(Nc2cc(N3CCN(C)CC3)nc(Sc3ccc(NC(=O)C4CC4)cc3)n2)n[nH]1 [Tozasertib] (partner 0.1 µM)
Assay: relative viability (nuclei count vs DMSO), 5 days (fraction); higher = more cells survive
How it was run: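 Relative viability equals treated-well nuclei counts divided by vehicle-well nuclei counts. Counts came from 4× images of lung cancer cell lines grown in 1536-well plates for 5 days after pin-tool dosing on the day after seeding. Dosing used one drug alone or a fixed anchor-drug dose plus five library-drug doses (not always all listed) in √10 steps, and values are medians of duplicate plates.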

| Cell Line | relative viability (first compound 0.04 µM) | relative viability (first compound 0.1265 µM) | relative viability (first compound 0.4 µM) | relative viability (first compound 1.265 µM) | relative viability (first compound 4 µM) |
| --- | --- | --- | --- | --- | --- |
| 201T | 0.916 | 0.912 | 0.983 | 0.853 | 0.864 |
| A-427 | 0.198 | 0.232 | 0.208 | 0.189 | 0.217 |
| ABC-1 | 0.15 | 0.164 | 0.185 | 0.189 | 0.195 |
| BEN | 0.544 | 0.433 | 0.547 | 0.461 | 0.481 |
| CAL-12T | 0.39 | 0.294 | 0.302 | 0.292 | 0.216 |
| COR-L23 | 0.248 | 0.176 | 0.21 | 0.131 | 0.155 |
| COR-L 105 | 0.343 | 0.36 | 0.367 | 0.369 | 0.693 |
| ChaGo-K-1 | 0.215 | 0.221 | 0.228 | 0.207 | 0.204 |
| EKVX | 0.4 | 0.371 | 0.369 | 0.351 | 0.349 |
| EMC-BAC-2 | 0.304 | 0.253 | 0.314 | 0.236 | 0.26 |
| EPLC-272H | 0.299 | 0.352 | 0.143 | 0.314 | 0.284 |
| H3255 | 0.576 | 0.603 | 0.633 | 0.677 | 0.527 |
| HARA | 0.118 | 0.127 | 0.132 | 0.098 | 0.117 |
| HCC-15 | 0.377 |  | 0.398 | 0.319 | 0.247 |
| HCC-44 | 0.919 | 0.827 | 0.878 | 0.771 | 0.926 |
| HCC-78 | 0.432 | 0.236 | 0.278 | 0.335 | 0.563 |
| HCC-366 | 0.13 | 0.168 | 0.0914 | 0.0579 | 0.0542 |

| Cell Line | relative viability (first compound 0.04 µM) | relative viability (first compound 0.1265 µM) | relative viability (first compound 0.4 µM) | relative viability (first compound 1.265 µM) | relative viability (first compound 4 µM) |
| --- | --- | --- | --- | --- | --- |
| HCC-827 | 0.415 | 0.348 | 0.408 | 0.449 | 0.4 |
| HOP-62 | 0.391 |  | 0.376 | 0.333 | 0.374 |
| LC-2-ad | 0.483 |  | 0.516 | 0.391 | 0.487 |
| LCLC-97TM1 | 0.289 | 0.196 | 0.181 | 0.19 | 0.227 |
| LCLC-103H | 0.455 | 0.305 | 0.543 | 0.441 | 0.475 |
| LK-2 | 0.162 |  | 0.169 | 0.198 | 0.164 |
| LOU-NH91 | 0.614 | 0.551 | 0.67 | 0.609 | 0.69 |
| LU99A | 0.295 | 0.254 | 0.253 | 0.244 | 0.216 |
| LXF-289 | 0.201 | 0.144 | 0.196 | 0.209 | 0.203 |
| NCI-H23 | 0.397 | 0.372 | 0.373 | 0.291 | 0.367 |
| NCI-H322M | 0.477 | 0.457 | 0.448 | 0.461 | 0.51 |
| NCI-H358 | 0.113 | 0.128 | 0.104 | 0.102 | 0.0985 |
| NCI-H441 | 0.55 | 0.544 | 0.596 | 0.507 | 0.481 |
| NCI-H460 | 0.398 | 0.453 | 0.384 | 0.174 | 0.152 |
| NCI-H520 | 0.377 | 0.376 | 0.388 | 0.483 | 0.377 |
| NCI-H522 | 0.583 | 0.471 | 0.561 | 0.503 | 0.541 |
| NCI-H596 | 0.843 | 0.733 | 0.869 | 1.06 | 0.754 |
